Tests used:
Assay in all cases: Post-emergence test experiment (Table 3, 1000 g/ha)
Format in all cases: in vivo
Settings in all cases: post-emergence spray, after 3 weeks, fresh weight inhibition
Galium spurium = system: Galium spurium
Source text: (§1) The activity level standard of harmful plants destruction (i. e. growth inhibition rate) is as follows: • Level 5: the growth inhibition rate is greater than 85%; • Level 4: the growth inhibition rate is equal to or greater than 60% and less than 85%; • Level 3: the growth inhibition rate is equal to or greater than 40% and less than 60%; • Level 2: the growth inhibition rate is equal to or greater than 20% and less than 40%; • Level 1: the growth inhibition rate is equal to or greater than 5% and less than 20%; • Level 0: the growth inhibition rate is less than 5%;
(§2) The above described growth inhibition rate is fresh weight inhibition rate.
(§3) Post-emergence test experiment: Monocotyledonous and dicotyledonous weed seeds and main crop seeds (i. e. wheat, corn, rice, soybean, cotton, oilseed, millet and sorghum.) were put into a plastic pot loaded with soil. Then covered with 0.5-2 cm soil, the seeds were allowed to grow in good greenhouse environment. The test plants were treated at 2-3 leaf stage 2 weeks after sowing. The test compounds of the invention were dissolved with acetone respectively, then added with tween-80, and using 1.5 liters per hectare of an emulsible concentrate of methyl oleate as a synergist, and diluted by certain amount of water to certain concentration. The solution was sprayed to the plants with a sprayer. Then the plants were cultured for 3 weeks in the greenhouse, and the experiment result of weed controlling effect after 3 weeks was listed in tables 3-4.

Monochoria vaginalis = system: Monochoria vaginalis
Source text: as §1, §2, §3

Abutilon theophrasti = system: Abutilon theophrasti
Source text: as §1, §2, §3

Row | Structure (SMILES) | Activity level (growth inhibition rate) Galium spurium (Galium spurium) | Activity level (growth inhibition rate) Monochoria Vaginalis (Monochoria vaginalis) | Activity level (growth inhibition rate) Abutilon theophrasti (Abutilon theophrasti)
1 | CCC(Oc1nc(F)c(Cl)c(N)c1Cl)C(=O)SC (stereo not drawn) [Compound 25] | 5 (Level 5: the growth inhibition rate is greater than 85%) | 5 (Level 5: the growth inhibition rate is greater than 85%) | 5 (Level 5: the growth inhibition rate is greater than 85%)
2 | CSC(=O)C(C#N)Oc1nc(F)c(Cl)c(N)c1Cl (stereo not drawn) [Compound 43] | 5 (Level 5: the growth inhibition rate is greater than 85%) | 5 (Level 5: the growth inhibition rate is greater than 85%) | 5 (Level 5: the growth inhibition rate is greater than 85%)
3 | CSC(=O)C(C=O)Oc1nc(F)c(Cl)c(N)c1Cl (stereo not drawn) [Compound 51] | 5 (Level 5: the growth inhibition rate is greater than 85%) | 5 (Level 5: the growth inhibition rate is greater than 85%) | 5 (Level 5: the growth inhibition rate is greater than 85%)
4 | CSC(=O)C(CC#N)Oc1nc(F)c(Cl)c(N)c1Cl (stereo not drawn) [Compound 44] | 5 (Level 5: the growth inhibition rate is greater than 85%) | 5 (Level 5: the growth inhibition rate is greater than 85%) | 5 (Level 5: the growth inhibition rate is greater than 85%)
5 | CSC(=O)C(Oc1nc(F)c(Cl)c(N)c1Cl)c1cscn1 (stereo not drawn) [Compound 55] | 5 (Level 5: the growth inhibition rate is greater than 85%) | 5 (Level 5: the growth inhibition rate is greater than 85%) | 5 (Level 5: the growth inhibition rate is greater than 85%)
6 | COC(C)C(Oc1nc(F)c(Cl)c(N)c1Cl)C(=O)SC (stereo not drawn) [Compound 31] | 5 (Level 5: the growth inhibition rate is greater than 85%) | 5 (Level 5: the growth inhibition rate is greater than 85%) | 5 (Level 5: the growth inhibition rate is greater than 85%)
7 | CSC(=O)C(CCCl)Oc1nc(F)c(Cl)c(N)c1Cl (stereo not drawn) [Compound 40] | 5 (Level 5: the growth inhibition rate is greater than 85%) | 5 (Level 5: the growth inhibition rate is greater than 85%) | 5 (Level 5: the growth inhibition rate is greater than 85%)
8 | CSC(=O)C(Oc1nc(F)c(Cl)c(N)c1Cl)C(F)F (stereo not drawn) [Compound 39] | 5 (Level 5: the growth inhibition rate is greater than 85%) | 5 (Level 5: the growth inhibition rate is greater than 85%) | 5 (Level 5: the growth inhibition rate is greater than 85%)
9 | CCCC(Oc1nc(F)c(Cl)c(N)c1Cl)C(=O)SC (stereo not drawn) [Compound 26] | 5 (Level 5: the growth inhibition rate is greater than 85%) | 5 (Level 5: the growth inhibition rate is greater than 85%) | 5 (Level 5: the growth inhibition rate is greater than 85%)
10 | CSC(=O)C(Oc1nc(F)c(Cl)c(N)c1Cl)[N+](=O)[O-] (stereo not drawn) [Compound 49] | 5 (Level 5: the growth inhibition rate is greater than 85%) | 5 (Level 5: the growth inhibition rate is greater than 85%) | 5 (Level 5: the growth inhibition rate is greater than 85%)
11 | CSC(=O)C(Oc1nc(F)c(Cl)c(N)c1Cl)c1ccccc1 (stereo not drawn) [Compound 59] | 5 (Level 5: the growth inhibition rate is greater than 85%) | 5 (Level 5: the growth inhibition rate is greater than 85%) | 5 (Level 5: the growth inhibition rate is greater than 85%)
12 | CSC(=O)C(CF)Oc1nc(F)c(Cl)c(N)c1Cl (stereo not drawn) [Compound 38] | 5 (Level 5: the growth inhibition rate is greater than 85%) | 5 (Level 5: the growth inhibition rate is greater than 85%) | 5 (Level 5: the growth inhibition rate is greater than 85%)
13 | CCn1nccc1C(Oc1nc(F)c(Cl)c(N)c1Cl)C(=O)SC (stereo not drawn) [Compound 56] | 5 (Level 5: the growth inhibition rate is greater than 85%) | 5 (Level 5: the growth inhibition rate is greater than 85%) | 5 (Level 5: the growth inhibition rate is greater than 85%)
14 | CSC(=O)C(Oc1nc(F)c(Cl)c(N)c1Cl)c1ccc2ccccc2c1 (stereo not drawn) [Compound 65] | 5 (Level 5: the growth inhibition rate is greater than 85%) | 5 (Level 5: the growth inhibition rate is greater than 85%) | 5 (Level 5: the growth inhibition rate is greater than 85%)
15 | COc1ccc(C(Oc2nc(F)c(Cl)c(N)c2Cl)C(=O)SC)c(C)c1 (stereo not drawn) [Compound 62] | 5 (Level 5: the growth inhibition rate is greater than 85%) | 5 (Level 5: the growth inhibition rate is greater than 85%) | 5 (Level 5: the growth inhibition rate is greater than 85%)
16 | CSC(=O)C(Oc1nc(F)c(Cl)c(N)c1Cl)c1cccc(Cl)c1 (stereo not drawn) [Compound 61] | 5 (Level 5: the growth inhibition rate is greater than 85%) | 5 (Level 5: the growth inhibition rate is greater than 85%) | 5 (Level 5: the growth inhibition rate is greater than 85%)
17 | CSC(=O)C(Oc1nc(F)c(Cl)c(N)c1Cl)C1CC1 (stereo not drawn) [Compound 28] | 5 (Level 5: the growth inhibition rate is greater than 85%) | 5 (Level 5: the growth inhibition rate is greater than 85%) | 5 (Level 5: the growth inhibition rate is greater than 85%)
18 | CSC(=O)C(N)Oc1nc(F)c(Cl)c(N)c1Cl (stereo not drawn) [Compound 45] | 5 (Level 5: the growth inhibition rate is greater than 85%) | 5 (Level 5: the growth inhibition rate is greater than 85%) | 5 (Level 5: the growth inhibition rate is greater than 85%)
19 | CSC(=O)C(Cl)Oc1nc(F)c(Cl)c(N)c1Cl (stereo not drawn) [Compound 35] | 5 (Level 5: the growth inhibition rate is greater than 85%) | 5 (Level 5: the growth inhibition rate is greater than 85%) | 5 (Level 5: the growth inhibition rate is greater than 85%)
20 | CSC(=O)C(Oc1nc(F)c(Cl)c(N)c1Cl)c1cncnc1 (stereo not drawn) [Compound 64] | 5 (Level 5: the growth inhibition rate is greater than 85%) | 5 (Level 5: the growth inhibition rate is greater than 85%) | 5 (Level 5: the growth inhibition rate is greater than 85%)
21 | CSC(=O)C(Oc1nc(F)c(Cl)c(N)c1Cl)c1cccnc1 (stereo not drawn) [Compound 63] | 5 (Level 5: the growth inhibition rate is greater than 85%) | 5 (Level 5: the growth inhibition rate is greater than 85%) | 5 (Level 5: the growth inhibition rate is greater than 85%)
22 | COC(Oc1nc(F)c(Cl)c(N)c1Cl)C(=O)SC (stereo not drawn) [Compound 50] | 5 (Level 5: the growth inhibition rate is greater than 85%) | 5 (Level 5: the growth inhibition rate is greater than 85%) | 5 (Level 5: the growth inhibition rate is greater than 85%)
23 | CSC(=O)C(CO)Oc1nc(F)c(Cl)c(N)c1Cl (stereo not drawn) [Compound 48] | 5 (Level 5: the growth inhibition rate is greater than 85%) | 5 (Level 5: the growth inhibition rate is greater than 85%) | 5 (Level 5: the growth inhibition rate is greater than 85%)
24 | CSC(=O)C(Br)Oc1nc(F)c(Cl)c(N)c1Cl (stereo not drawn) [Compound 36] | 5 (Level 5: the growth inhibition rate is greater than 85%) | 5 (Level 5: the growth inhibition rate is greater than 85%) | 5 (Level 5: the growth inhibition rate is greater than 85%)
25 | CSC(=O)C(Oc1nc(F)c(Cl)c(N)c1Cl)c1cnn(C(F)F)c1 (stereo not drawn) [Compound 58] | 5 (Level 5: the growth inhibition rate is greater than 85%) | 5 (Level 5: the growth inhibition rate is greater than 85%) | 5 (Level 5: the growth inhibition rate is greater than 85%)

Reference: patent publication US12391648B2, “Pyridyloxy thioester derivative and preparation method therefor, herbicidal composition, and application” (Qingdao Kingagroot Chemical Compound Co., Ltd., priority 2018, dated 2025)
